Experiments:
Assay type in all cases: functional
[1] = system: MOLT-4; assay: Cytotoxicity against human MOLT4 cells incubated for 48 hrs by sulforhodamine B assay; details: MOLT-4, 48 h
[2] = system: EKVX; assay: Cytotoxicity against human EKVX cells incubated for 48 hrs by sulforhodamine B assay
[3] = system: NCI-H322M; assay: Cytotoxicity against human NCI-H322M cells incubated for 48 hrs by sulforhodamine B assay
[4] = system: NCI-H460; assay: Cytotoxicity against human NCI-H460 cells incubated for 48 hrs by sulforhodamine B assay; details: NCI-H460, 48 h
[5] = system: NCI-H522; assay: Cytotoxicity against human NCI-H522 cells incubated for 48 hrs by sulforhodamine B assay; details: NCI-H522, 48 h
[6] = system: COLO 205; assay: Cytotoxicity against human COLO205 cells incubated for 48 hrs by sulforhodamine B assay; details: COLO 205, 48 h
[7] = system: HCT-116; assay: Cytotoxicity against human HCT116 cells incubated for 48 hrs by sulforhodamine B assay; details: HCT-116, 48 h
[8] = system: HCT-15; assay: Cytotoxicity against human HCT15 cells incubated for 48 hrs by sulforhodamine B assay; details: HCT-15, 48 h
[9] = system: HT-29; assay: Cytotoxicity against human HT-29 cells incubated for 48 hrs by sulforhodamine B assay; details: HT-29, 48 h
[10] = system: SW-620; assay: Cytotoxicity against human SW620 cells incubated for 48 hrs by sulforhodamine B assay; details: SW-620, 48 h
[11] = system: SF-268; assay: Cytotoxicity against human SF268 cells incubated for 48 hrs by sulforhodamine B assay; details: SF-268, 48 h
[12] = system: SF-295; assay: Cytotoxicity against human SF295 cells incubated for 48 hrs by sulforhodamine B assay; details: SF-295, 48 h
[13] = system: SNB-75; assay: Cytotoxicity against human SNB75 cells incubated for 48 hrs by sulforhodamine B assay; details: SNB-75, 48 h
[14] = system: U-251; assay: Cytotoxicity against human U251 cells incubated for 48 hrs by sulforhodamine B assay; details: U-251, 48 h
[15] = system: LOX IMVI; assay: Cytotoxicity against human LOXIMVI cells incubated for 48 hrs by sulforhodamine B assay
[16] = system: Malme-3M; assay: Cytotoxicity against human MALME-3M cells incubated for 48 hrs by sulforhodamine B assay
[17] = system: M14; assay: Cytotoxicity against human M14 cells incubated for 48 hrs by sulforhodamine B assay; details: M14, 48 h
[18] = system: MDA-MB-435; assay: Cytotoxicity against human MDA-MB-435 cells incubated for 48 hrs by sulforhodamine B assay; details: MDA-MB-435, 48 h
[19] = system: SK-MEL-28; assay: Cytotoxicity against human SK-MEL-28 cells incubated for 48 hrs by sulforhodamine B assay; details: SK-MEL-28, 48 h
[20] = system: UACC-257; assay: Cytotoxicity against human UACC257 cells incubated for 48 hrs by sulforhodamine B assay; details: UACC-257, 48 h
[21] = system: UACC-62; assay: Cytotoxicity against human UACC62 cells incubated for 48 hrs by sulforhodamine B assay; details: UACC-62, 48 h
[22] = system: IGROV-1; assay: Cytotoxicity against human IGROV1 cells incubated for 48 hrs by sulforhodamine B assay; details: IGROV-1, 48 h
[23] = system: OVCAR-3; assay: Cytotoxicity against human OVCAR3 cells incubated for 48 hrs by sulforhodamine B assay; details: OVCAR-3, 48 h
[24] = system: OVCAR-4; assay: Cytotoxicity against human OVCAR4 cells incubated for 48 hrs by sulforhodamine B assay; details: OVCAR-4, 48 h
[25] = system: OVCAR-5; assay: Cytotoxicity against human OVCAR5 cells incubated for 48 hrs by sulforhodamine B assay; details: OVCAR-5, 48 h
[26] = system: NCI/ADR-RES; assay: Cytotoxicity against human NCI/ADR-RES cells incubated for 48 hrs by sulforhodamine B assay
[27] = system: SK-OV-3; assay: Cytotoxicity against human SKOV3 cells incubated for 48 hrs by sulforhodamine B assay; details: SK-OV-3, 48 h
[28] = system: 786-0; assay: Cytotoxicity against human 786-0 cells incubated for 48 hrs by sulforhodamine B assay; details: 786-0, 48 h
[29] = system: ACHN; assay: Cytotoxicity against human ACHN cells incubated for 48 hrs by sulforhodamine B assay
[30] = system: DU-145; assay: Cytotoxicity against human DU145 cells incubated for 48 hrs by sulforhodamine B assay; details: DU-145, 48 h
[31] = system: MCF7; assay: Cytotoxicity against human MCF7 cells incubated for 48 hrs by sulforhodamine B assay; details: MCF7, 48 h
[32] = system: Hs-578T; assay: Cytotoxicity against human Hs 578T cells incubated for 48 hrs by sulforhodamine B assay
[33] = system: A549; assay: Induction of apoptosis in human A549 cells assessed as early apoptotic cells at 1.4 uM after 24 hrs by Annexin V/propidium iodide staining based flow cytometric analysis (reference value: 0.22%)
[34] = read-out: LC50 (the source's name)

`COc1ccc(-c2nc3sc(-c4ccc(Cl)cc4)cn3n2)cc1` was tested, and the GI50 [1] was 11.3 µM, the TGI [1] was > 50 µM and the CC50 [1, 34] was > 50 µM. For the same compound, the GI50 [2] was 4.82 µM, the TGI [2] was > 50 µM and the CC50 [2, 34] was > 50 µM. The GI50 [3] was 1.76 µM, the TGI [3] was > 50 µM and the CC50 [3, 34] was > 50 µM. It also gave a GI50 [4] of 1.33 µM, a TGI [4] of 4 µM and a CC50 [4, 34] of 18.9 µM. The GI50 [5] was 14.9 µM, the TGI [5] was > 50 µM and the CC50 [5, 34] was > 50 µM. The GI50 [6] was 2.56 µM, the TGI [6] was > 50 µM and the CC50 [6, 34] was > 50 µM. The GI50 [7] was 1.21 µM, the TGI [7] was 3.48 µM and the CC50 [7, 34] was > 50 µM. For the same compound, the GI50 [8] was 24.5 µM, the TGI [8] was > 50 µM and the CC50 [8, 34] was > 50 µM. The GI50 [9] was 2.96 µM, the TGI [9] was > 50 µM and the CC50 [9, 34] was > 50 µM. The GI50 [10] was 5.51 µM, the TGI [10] was > 50 µM and the CC50 [10, 34] was > 50 µM. For the same compound, the GI50 [11] was 48 µM, the TGI [11] was > 50 µM and the CC50 [11, 34] was > 50 µM. The GI50 [12] was 2.81 µM, the TGI [12] was 31.8 µM and the CC50 [12, 34] was > 50 µM. It also gave a GI50 [13] of 1.61 µM, a TGI [13] of 6.85 µM and a CC50 [13, 34] of 23.3 µM. It also gave a GI50 [14] of 1.03 µM, a TGI [14] of 2.29 µM and a CC50 [14, 34] of 5.53 µM. For the same compound, the GI50 [15] was > 50 µM, the TGI [15] was > 50 µM and the CC50 [15, 34] was > 50 µM. The GI50 [16] was 2.71 µM, the TGI [16] was > 50 µM and the CC50 [16, 34] was > 50 µM. The GI50 [17] was > 50 µM, the TGI [17] was > 50 µM and the CC50 [17, 34] was > 50 µM. The GI50 [18] was > 50 µM, the TGI [18] was > 50 µM and the CC50 [18, 34] was > 50 µM. The GI50 [19] was > 50 µM, the TGI [19] was > 50 µM and the CC50 [19, 34] was > 50 µM. For the same compound, the GI50 [20] was > 50 µM, the TGI [20] was > 50 µM and the CC50 [20, 34] was > 50 µM. The GI50 [21] was 8.24 µM, the TGI [21] was > 50 µM and the CC50 [21, 34] was > 50 µM. For the same compound, the GI50 [22] was 1.15 µM, the TGI [22] was 8.13 µM and the CC50 [22, 34] was > 50 µM. The GI50 [23] was 1.72 µM, the TGI [23] was 7.2 µM and the CC50 [23, 34] was > 50 µM. It also gave a GI50 [24] of 0.766 µM, a TGI [24] of 1.63 µM and a CC50 [24, 34] of 3.45 µM. For the same compound, the GI50 [25] was 2.78 µM, the TGI [25] was > 50 µM and the CC50 [25, 34] was > 50 µM. For the same compound, the GI50 [26] was 3.75 µM, the TGI [26] was > 50 µM and the CC50 [26, 34] was > 50 µM. For the same compound, the GI50 [27] was 11.7 µM, the TGI [27] was > 50 µM and the CC50 [27, 34] was > 50 µM. The GI50 [28] was 1.06 µM, the TGI [28] was 2.41 µM and the CC50 [28, 34] was 6.7 µM. It also gave a GI50 [29] of 0.927 µM, a TGI [29] of 2.02 µM and a CC50 [29, 34] of 4.41 µM. The GI50 [30] was > 50 µM, the TGI [30] was > 50 µM and the CC50 [30, 34] was > 50 µM. For the same compound, the GI50 [31] was 2.62 µM, the TGI [31] was > 50 µM and the CC50 [31, 34] was > 50 µM. For the same compound, the GI50 [32] was 2.31 µM, the TGI [32] was > 50 µM and the CC50 [32, 34] was > 50 µM. The Activity [33] was 4.23%.
